From US20150065440A1 (Progen Pharmaceuticals Limited, priority 2007, published 2015)

Legend:
HSV-1 [1] = test: Anti-HSV screening assay (viral plaques), HSV-1; type: cell-based; details: 100 μg/mL, viral plaques relative to mock treated controls
Experimental: (§1) African green monkey kidney (GMK AH1) cells^46 were cultured in Eagle's minimum essential medium (EMEM) supplemented with 2% calf serum, 0.05% Primaton RL substance (Kraft Inc., Norwich, USA) and antibiotics. Human epidermoid carcinoma (HEp-2) cells were cultured in Dulbecco's modified EMEM (DMEM) supplemented with 10% fetal calf serum and antibiotics. […] The RSV strain A-2^50 was used. The RSV stock was prepared as described by Hallak et al.^51 and stored at −70° C. in the presence of 40% sucrose^52.
(§2) The viral infectivity (the plaque number-reduction) assay and the plaque size-reduction assay were carried out as described previously^17. […] Subsequently, the cells were washed with 2 mL of EMEM and overlaid with 1% methylcellulose solution in EMEM. The plaques were visualized by staining with crystal violet solution after 2 (HSV-2) or 3 (HSV-1) days of incubation at 37° C. […] When the compounds were screened for anti-HSV or anti-RSV activity, mixtures of 200 PFU of the virus and the test compound (100 μg/mL) in serum-free EMEM were incubated for 10 min at room temperature before addition to cells and during the entire period of viral infection of cells and the development of viral plaques. In the plaque size-reduction assay, the compounds were added to cells (in methylcellulose overlay medium) after 2 h period of virus infection of cells in the absence of the inhibitor. After 2-3 days of incubation at 37° C., the viral plaques were visualized by staining the cells with 1% solution of crystal violet. For each compound tested, the images of twenty neighboring plaques were captured using a Leica DC300 digital camera attached to a Leitz-Wetzlar Diavert microscope. The area of each plaque was determined using IM500 image software (Leica). Similar protocols were used for RSV, except that the assays were performed in HEp-2 cells and DMEM supplemented with 2% heat-inactivated fetal calf serum was used instead of EMEM.

HSV-2 [2] = test: Anti-HSV screening assay (viral plaques), HSV-2; type: cell-based; details: 100 μg/mL, viral plaques relative to mock treated controls
Experimental: as §1, §2

HSV-1 [3] = test: Virus inactivation assay, HSV-1; type: cell-based; details: 15 min at 37° C.
Experimental: (§3) Approximately 10^5 plaque-forming units of HSV-1 KOS321 or HSV-2 333 stain and specific concentrations of the test compound in 200 μL of serum-free EMEM were mixed and incubated at 37° C. for 15 min. The mixtures were diluted to the non-inhibitory concentrations of the test compound, and then subjected to the infectious titer determination as described under the viral plaque number-reduction assay. In case of RSV, the assay was carried out in similar manner using DMEM supplemented with 2% heat-inactivated fetal calf serum instead of EMEM. To evaluate the effect of a low pH value or the presence of cervical secretions; the virus (HSV-2 333) and compounds were diluted in a low pH buffer (4.5) or cervical secretions were added to the compound dilutions before mixing with the virus (HSV-2 333). The cervical secretions were prepared from cervical swabs generated from 3 different individuals. The swabs were rinsed with distilled water and centrifuged at 5000×g for 10 min. The supernatant was kept at −20° C. In the case of RSV, the assay was carried out in a similar manner using DMEM supplemented with 2% heat-inactivated fetal calf serum instead of EMEM.

HSV-2 [4] = test: Virus inactivation assay, HSV-2; type: cell-based; details: for Virus-inactivating activity: viral plaques with compound-treated virus relative to mock-treated controls: 15 min at 37° C.
Experimental: as §3

RSV = test: Virus inactivation assay, RSV; type: cell-based; details: 15 min at 37° C.
Experimental: as §3

rat aortic tissue = test: Ex vivo angiogenic sprout assay (rat aortic angiogenesis assay); type: cell-based, Sprague Dawley rats
Experimental: Explants from rat aortas were prepared by a modification of protocols previously described^42-54. In this model, the rat aortic endothelium exposed to a three dimensional matrix of ECM-derived proteins (Matrigel™), switches to a microvascular phenotype, generating branching networks of microvessels.
Briefly, thoracic aortas were excised from 2- to 4-month old Sprague Dawley rats and trimmed of remaining fat and connective tissue. Great care was taken at every stage to reduce physical damage of the aorta. Tissue was transferred to complete EBM-2 media (Cambrex) containing 2% FCS and all Singlequots™ (Cambrex) reagents except for heparin. Meanwhile, Matrigel™ (BD Biosciences) was allowed to cool on ice and once in a liquid form, 180 μL was pipetted into 48-well tissue culture plates (Nunc). The plates were incubated at 37° C. for 30 min to allow Matrigel™ to solidify.
Aortas were prepared by cutting 1 mm ring sections and then being bisected. Aortic segments were then carefully placed on top on the Matrigel™ in the centre of each well and once orientated as required, 60 μL of extra Matrigel™ was placed on top and the plate was returned to the incubator for a further 20 min. Each well was then supplemented with 1.0 mL media in the absence (control) or presence of test compounds usually at two concentrations within the range of 1-50 μM, depending on the particular compound/experiment. Cultures were replenished as appropriate every 48 h and scoring of microvessels was carried out at various timepoints up to 8-10 days. The extent of microvessel sprouting was determined by employing a scoring system from 0-5, where 0=no microvessels to 5=diffuse angiogenesis as previously described^45. Sprouting vessels were photographed using the 4× objective with an Olympus C-7070 camera and an adaptor for the eyepiece.
In some instances, to determine the potential toxicity of compounds in this assay, the viability of the tissue was assessed by withdrawing the compound/media from the culture on day 6 or 7 and adding complete media with VEGF (typically 10 ng/mL) for up to an additional 7 days. In the absence of toxicity, the viable tissue should sprout microvessels in response to the exogenous growth factor.
The inhibitory effect of compounds of the present invention on angiogenesis was assayed using the angiogenic sprout/microvessel formation (rat aortic) assay described above. Embedding of the rat aortic tissue in Matrigel™ in the absence of any inhibitor (control) yielded extensive angiogenic sprouting (as a score of 5 indicates diffuse angiogenesis) as illustrated by FIG. 1.

Row | SMILES | Residual infectivity (%) HSV-1 (HSV-1 [1]) | Residual infectivity (%) HSV-2 (HSV-2 [2]) | Virus-inactivating activity: viral plaques with compound-treated virus relative to mock-treated controls (HSV-1 [3]; HSV-1, 1 μg/ml) | Virus-inactivating activity: viral plaques with compound-treated virus relative to mock-treated controls (HSV-1 [3]; HSV-1, 10 μg/ml) | Virus-inactivating activity: viral plaques with compound-treated virus relative to mock-treated controls (HSV-1 [3]; HSV-1, 100 μg/ml) | Virus-inactivating activity: viral plaques with compound-treated virus relative to mock-treated controls (HSV-2 [4]; HSV-2, 1 μg/ml) | Virus-inactivating activity: viral plaques with compound-treated virus relative to mock-treated controls (HSV-2 [4]; HSV-2, 10 μg/ml) | Virus-inactivating activity: viral plaques with compound-treated virus relative to mock-treated controls (HSV-2 [4]; HSV-2, 100 μg/ml) | Virus-inactivating activity: viral plaques with compound-treated virus relative to mock-treated controls (RSV; 4 μg/ml) | Virus-inactivating activity: viral plaques with compound-treated virus relative to mock-treated controls (RSV; 20 μg/ml) | Virus-inactivating activity: viral plaques with compound-treated virus relative to mock-treated controls (RSV; 100 μg/ml) | Virus-inactivating activity in the presence of human cervical secretions: viral plaques relative to mock-treated controls (HSV-2 [4]; HSV-2, cervical secretions diluted 1:2.2, 1 μg/ml) | Virus-inactivating activity in the presence of human cervical secretions: viral plaques relative to mock-treated controls (HSV-2 [4]; HSV-2, cervical secretions diluted 1:2.2, 10 μg/ml) | Virus-inactivating activity in the presence of human cervical secretions: viral plaques relative to mock-treated controls (HSV-2 [4]; HSV-2, cervical secretions diluted 1:2.2, 100 μg/ml) | Virus-inactivating activity at low pH: viral plaques relative to mock-treated controls (HSV-2 [4]; HSV-2, pH 4.5, 1 μg/ml) | Virus-inactivating activity at low pH: viral plaques relative to mock-treated controls (HSV-2 [4]; HSV-2, pH 4.5, 10 μg/ml) | Virus-inactivating activity at low pH: viral plaques relative to mock-treated controls (HSV-2 [4]; HSV-2, pH 4.5, 100 μg/ml) | % Inhibition of Angiogenesis (10 μM) (rat aortic tissue; 10 μM) | inhibition at 10 µM (rat aortic tissue; Rattus norvegicus)
1 | CCCCCCCCCCCCOC1OC(COS(=O)(=O)O)C(OS(=O)(=O)O)C(OS(=O)(=O)O)C1OC1OC(COS(=O)(=O)O)C(OS(=O)(=O)O)C(OC2OC(COS(=O)(=O)O)C(OS(=O)(=O)O)C(OC3OC(COS(=O)(=O)O)C(OS(=O)(=O)O)C(OC4OC(COS(=O)(=O)O)C(OS(=O)(=O)O)C(OS(=O)(=O)O)C4OS(=O)(=O)O)C3OS(=O)(=O)O)C2OS(=O)(=O)O)C1OS(=O)(=O)O [Compound 4, Dodecyl 2,3,4,6-tetra-O-sodium sulfonato-α-D-mannopyranosyl-(1→3)-2,4,6-tri-O-sodium sulfonato-α-D-mannopyranosyl-(1→3)-2,4,6-tri-O-sodium sulfonato-α-D-mannopyranosyl-(1→3)-2,4,6-tri-O-sodium sulfonato-α-D-mannopyranosyl-(1→2)-3,4,6-tri-O-sodium sulfonato-α-D-mannopyranoside] | 2% | 0.7% | 83.9% | 79.4% | 83.8% | 98.6% | 97.5% | 68.1% | 85.2% | 82.2% | 47.3% | – | – | – | – | – | – | – | –
2 | CC(C)CCCC(C)C1CCC2C3CCC4CC(OC5OC(COS(=O)(=O)O)C(OS(=O)(=O)O)C(OS(=O)(=O)O)C5OC5OC(COS(=O)(=O)O)C(OS(=O)(=O)O)C(OC6OC(COS(=O)(=O)O)C(OS(=O)(=O)O)C(OC7OC(COS(=O)(=O)O)C(OS(=O)(=O)O)C(OS(=O)(=O)O)C7OS(=O)(=O)O)C6OS(=O)(=O)O)C5OS(=O)(=O)O)CCC4(C)C3CCC12C [Compound 20, 3β-Cholestanyl 2,3,4,6-tetra-O-sodium sulfonato-α-D-mannopyranosyl-(1→3)-2,4,6-tri-O-sodium sulfonato-α-D-mannopyranosyl-(1→3)-2,4,6-tri-O-sodium sulfonato-α-D-mannopyranosyl-(1→2)-3,4,6-tri-O-sodium sulfonato-α-D-mannopyranoside] | 0% | 0% | 88.6% | 0% | 0% | 120.3% | 0.3% | 0% | 102.2% | 79.0% | 13.3% | 82.6% | 78.5% | 0.3% | 93.7% | 6.8% | 0.0% | – | –
3 | CC(C)CCC[C@@H](C)[C@H]1CC[C@H]2[C@@H]3CCC4CC(OCc5cn([C@@H]6O[C@H](COS(=O)(=O)[O-])[C@@H](O[C@H]7O[C@H](COS(=O)(=O)[O-])[C@@H](O[C@H]8O[C@H](COS(=O)(=O)[O-])[C@@H](OS(=O)(=O)[O-])[C@H](OS(=O)(=O)[O-])[C@H]8OS(=O)(=O)[O-])[C@H](OS(=O)(=O)[O-])[C@H]7OS(=O)(=O)[O-])[C@H](OS(=O)(=O)[O-])[C@H]6OS(=O)(=O)[O-])nn5)CC[C@]4(C)[C@H]3CC[C@]12C.[Na+].[Na+].[Na+].[Na+].[Na+].[Na+].[Na+].[Na+].[Na+].[Na+] (stereo partly drawn) [Compound 70, 4-(Cholestan-3-yl-oxymethyl)[1,2,3]triazol-1-yl 2,3,4,6-tetra-O-sodium sulfonato-α-D-glucopyranosyl-(1→4)-2,3,6-tri-O-sodium sulfonato-α-D-glucopyranosyl-(1→4)-1-deoxy-2,3,6-tri-O-sodium sulfonato-β-D-glucopyranoside] | – | – | – | – | – | – | – | – | – | – | – | – | – | – | – | – | – | 97% | –
4 | CCCCCCCCCCCCCCCCCC(=O)NCCCO[C@@H]1O[C@H](COS(=O)(=O)[O-])[C@@H](O[C@H]2O[C@H](COS(=O)(=O)[O-])[C@@H](O[C@H]3O[C@H](COS(=O)(=O)[O-])[C@@H](O[C@H]4O[C@H](COS(=O)(=O)[O-])[C@@H](OS(=O)(=O)[O-])[C@H](OS(=O)(=O)[O-])[C@H]4OS(=O)(=O)[O-])[C@H](OS(=O)(=O)[O-])[C@H]3OS(=O)(=O)[O-])[C@H](OS(=O)(=O)[O-])[C@H]2OS(=O)(=O)[O-])[C@H](OS(=O)(=O)[O-])[C@H]1OS(=O)(=O)[O-].[Na+].[Na+].[Na+].[Na+].[Na+].[Na+].[Na+].[Na+].[Na+].[Na+].[Na+].[Na+].[Na+] [Compound 128, 3-Stearamidopropyl 2,3,4,6-tetra-O-sulfo-α-D-glucopyranosyl-(1→4)-2,3,6-tri-O-sulfo-α-D-glucopyranosyl-(1→4)-2,3,6-tri-O-sulfo-α-D-glucopyranosyl-(1→4)-2,3,6-tri-O-sulfo-β-D-glucopyranoside, tridecasodium salt] | – | – | – | – | – | – | – | – | – | – | – | – | – | – | – | – | – | – | 65%
